Where two headings read alike, the source gives them in different places.
Target: T1, WIZ (Homo sapiens, UniProt O95785+Q96SW2)
T1 construct: expressed in transfected cells
Assay: Quantification of WIZ protein levels in HiBit tag fusion protein assay (293T cells)
Assay type: cell-based
Parameters: Dmax: dose or concentration left out as unconfirmed
Settings: for remaining activity at 25 µM / Dmax at 25 µM / Dmax: HEK-293T; for remaining activity at 25 µM: read-out: WIZ Amax; for Dmax at 25 µM / % degradation of WIZ (100 − Amax): 100 − Amax, at 25 uM; for Dmax at 25 µM / Dmax: read-out: % degradation of WIZ (100 − Amax); for DC50: WIZ HiBit assay in 293T cells, about 18 hours, 10-point 5-fold dilution, top 25 μM, read-out: WIZ AC50
Procedure: The HiBit system from Promega was used to develop high-throughput and quantitative assays to measure changes in WIZ protein levels in response to compounds. The HiBit tag was derived from a split Nanoluciferase and has the following protein sequence: […] (SEQ ID NO: 1). The complementary fragment of Nanoluciferase (known as LgBit, from Promega), was added to the HiBit tag to form an active Nanoluciferase enzyme whose activity can be precisely measured. In this way, the levels of a fusion protein with the HiBit tag can be quantified in cell lysates.
Lentiviral vectors, based on the Invitrogen™ pLenti6.2/V5 DEST backbone were constructed that places the HiBit tag upstream of WIZ and expressed the fusion protein from an HSVTK promotor.
To ensure moderate and consistent expression of the HiBit-WIZ fusion protein across all cells in the population, stable cell lines were constructed from cells harboring a single copy of the construct. Lentivirus packaged with the constructs were made using the ViraPowerTMkit from Invitrogen™. 293T cells from ATCC (Catalog number: CRL-3216), were infected with the virus at low multiplicity of infection and selected by 5 μg/mL blasticidin in culture media for 2 weeks.
The levels of HiBit-WIZ tagged fusion proteins in compound-treated cell lines were measured as follows:
On day 1, cells were diluted to 1.0×10^6 cells/ml in normal growth medium. 20 μL of cell suspension were plated in each well of a solid white 384-well plate. Plates were incubated overnight in a 37° C. and 5% CO2 humidified tissue culture incubator.
On day 2, serial dilutions of compounds were made in 384-well plates. Compound plates were set up with DMSO in columns 1, 2, 23, 24, and 10-point compound dilution series in column 3-12 and column 13-22. 10 mM stock solution of compound were placed into column 3 or 13 and a 1:5 serial dilution was carried out until there was a 10-point dilution series per compound. 50 nL of diluted compounds were transferred into the plated cells by Echo® (Labcyte) acoustic transfer. The highest concentration of compound was 25 μM. Plates were incubated overnight (about 18 hours) in a 37° C. and 5% CO2 humidified tissue culture incubator.
On day 3, plates were removed from the incubator and allowed to equilibrate at room temperature for 60 minutes. HiBit substrate (Nano-Glo® HiBit Lytic Detection System, Promega Catalogue number: N3050) was added as described by the manufacturers protocols. Plates were incubated at room temperature for 30 minutes and luminescence was read using an EnVision® reader (PerkinElmer®). Data was analyzed and visualized using the Spotfire® software package.
WIZ Amax reflects the DMSO-normalized, curve-fitted percentage of WIZ-HiBit remaining at 25 uM. It was calculated by normalizing DMSO controls to 100%, parametric curve fitting of the dose response data (10-point, 5-fold), followed by calculation of response at 25 uM using the fitted equation.

[1] = DMSO-normalized, curve-fitted percentage of WIZ-HiBit remaining at 25 uM

T1 sequence (O95785 whole entry): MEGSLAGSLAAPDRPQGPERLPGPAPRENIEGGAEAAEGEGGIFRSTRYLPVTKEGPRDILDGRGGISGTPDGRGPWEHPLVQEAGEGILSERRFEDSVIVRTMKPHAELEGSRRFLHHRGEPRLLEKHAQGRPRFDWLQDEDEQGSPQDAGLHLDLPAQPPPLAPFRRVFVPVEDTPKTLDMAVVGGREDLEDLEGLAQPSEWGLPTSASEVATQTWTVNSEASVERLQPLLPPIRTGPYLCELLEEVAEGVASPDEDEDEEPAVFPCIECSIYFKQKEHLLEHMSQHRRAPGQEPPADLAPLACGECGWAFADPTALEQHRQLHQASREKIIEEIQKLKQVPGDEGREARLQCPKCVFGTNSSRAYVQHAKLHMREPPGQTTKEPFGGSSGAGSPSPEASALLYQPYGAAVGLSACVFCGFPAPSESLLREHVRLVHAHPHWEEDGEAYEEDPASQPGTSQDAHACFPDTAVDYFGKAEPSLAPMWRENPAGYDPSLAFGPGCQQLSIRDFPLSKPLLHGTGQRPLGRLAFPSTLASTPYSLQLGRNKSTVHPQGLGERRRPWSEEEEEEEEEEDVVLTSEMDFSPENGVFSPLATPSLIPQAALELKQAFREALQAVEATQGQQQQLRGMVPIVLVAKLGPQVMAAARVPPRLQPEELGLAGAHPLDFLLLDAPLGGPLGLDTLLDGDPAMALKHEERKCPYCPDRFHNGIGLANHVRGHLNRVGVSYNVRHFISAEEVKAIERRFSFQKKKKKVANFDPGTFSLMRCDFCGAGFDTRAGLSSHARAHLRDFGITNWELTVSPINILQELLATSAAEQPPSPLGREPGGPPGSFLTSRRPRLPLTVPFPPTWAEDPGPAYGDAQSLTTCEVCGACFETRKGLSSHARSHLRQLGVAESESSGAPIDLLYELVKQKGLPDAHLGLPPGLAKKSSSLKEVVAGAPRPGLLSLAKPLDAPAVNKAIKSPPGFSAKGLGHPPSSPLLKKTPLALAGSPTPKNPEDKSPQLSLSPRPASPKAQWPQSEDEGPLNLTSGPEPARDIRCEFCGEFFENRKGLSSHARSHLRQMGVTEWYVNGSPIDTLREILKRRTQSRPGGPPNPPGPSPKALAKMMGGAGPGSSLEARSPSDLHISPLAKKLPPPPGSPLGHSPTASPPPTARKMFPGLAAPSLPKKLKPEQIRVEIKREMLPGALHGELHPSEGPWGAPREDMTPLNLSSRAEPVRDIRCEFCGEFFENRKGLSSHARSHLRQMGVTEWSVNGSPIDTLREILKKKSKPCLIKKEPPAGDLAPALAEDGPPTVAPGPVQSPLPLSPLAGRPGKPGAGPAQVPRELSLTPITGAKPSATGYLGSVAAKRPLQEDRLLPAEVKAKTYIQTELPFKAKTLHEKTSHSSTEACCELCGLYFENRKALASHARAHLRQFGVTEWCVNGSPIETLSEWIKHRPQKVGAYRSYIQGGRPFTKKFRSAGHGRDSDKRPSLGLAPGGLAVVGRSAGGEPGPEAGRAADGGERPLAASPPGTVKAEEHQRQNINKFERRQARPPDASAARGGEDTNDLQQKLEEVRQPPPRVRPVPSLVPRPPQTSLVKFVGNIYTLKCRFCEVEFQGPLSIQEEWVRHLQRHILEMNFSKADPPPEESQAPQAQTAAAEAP
T1 sequence (Q96SW2 whole entry): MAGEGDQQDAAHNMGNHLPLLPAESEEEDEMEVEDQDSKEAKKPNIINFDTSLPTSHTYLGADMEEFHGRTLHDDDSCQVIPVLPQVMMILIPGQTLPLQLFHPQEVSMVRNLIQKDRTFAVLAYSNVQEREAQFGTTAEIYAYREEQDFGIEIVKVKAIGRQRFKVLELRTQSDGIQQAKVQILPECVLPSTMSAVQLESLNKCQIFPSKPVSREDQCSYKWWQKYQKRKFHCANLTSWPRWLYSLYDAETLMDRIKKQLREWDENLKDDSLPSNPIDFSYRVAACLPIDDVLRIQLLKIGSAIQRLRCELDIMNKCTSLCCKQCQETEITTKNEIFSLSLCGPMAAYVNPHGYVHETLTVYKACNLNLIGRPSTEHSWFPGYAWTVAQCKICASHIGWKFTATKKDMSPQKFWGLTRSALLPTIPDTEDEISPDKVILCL
T1 sequence (Q16531 whole entry partner): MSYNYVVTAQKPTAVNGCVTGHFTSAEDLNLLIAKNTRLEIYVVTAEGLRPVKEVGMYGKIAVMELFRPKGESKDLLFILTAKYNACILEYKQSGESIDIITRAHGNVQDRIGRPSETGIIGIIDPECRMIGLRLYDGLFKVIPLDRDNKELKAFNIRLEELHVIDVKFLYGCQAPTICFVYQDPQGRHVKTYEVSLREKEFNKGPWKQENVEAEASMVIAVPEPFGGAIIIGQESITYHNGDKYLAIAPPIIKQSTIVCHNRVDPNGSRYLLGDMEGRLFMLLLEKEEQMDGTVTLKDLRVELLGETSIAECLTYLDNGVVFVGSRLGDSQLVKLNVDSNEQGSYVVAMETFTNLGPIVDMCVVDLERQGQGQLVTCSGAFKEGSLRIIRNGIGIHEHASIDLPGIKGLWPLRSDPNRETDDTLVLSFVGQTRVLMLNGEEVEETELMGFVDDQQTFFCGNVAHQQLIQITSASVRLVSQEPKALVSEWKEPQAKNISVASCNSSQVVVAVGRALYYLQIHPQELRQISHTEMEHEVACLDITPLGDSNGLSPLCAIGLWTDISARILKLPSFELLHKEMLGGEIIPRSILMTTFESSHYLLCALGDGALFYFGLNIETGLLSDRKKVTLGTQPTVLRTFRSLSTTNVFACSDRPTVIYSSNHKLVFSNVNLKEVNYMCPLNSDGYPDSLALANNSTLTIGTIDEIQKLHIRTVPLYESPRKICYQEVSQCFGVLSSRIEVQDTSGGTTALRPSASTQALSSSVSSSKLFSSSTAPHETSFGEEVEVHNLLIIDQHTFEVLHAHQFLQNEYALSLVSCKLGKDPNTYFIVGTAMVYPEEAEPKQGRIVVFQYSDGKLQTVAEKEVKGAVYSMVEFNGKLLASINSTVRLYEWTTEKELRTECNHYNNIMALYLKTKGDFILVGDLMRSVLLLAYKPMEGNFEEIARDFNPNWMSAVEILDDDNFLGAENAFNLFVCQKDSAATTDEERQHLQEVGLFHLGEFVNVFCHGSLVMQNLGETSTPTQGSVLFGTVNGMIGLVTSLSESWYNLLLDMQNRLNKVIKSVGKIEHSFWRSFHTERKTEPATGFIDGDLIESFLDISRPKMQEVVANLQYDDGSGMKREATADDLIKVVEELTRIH

remaining activity at 25 µM [1] [%]	Dmax at 25 µM [%]	WIZ Amax [1] [%]	% degradation of WIZ (100 − Amax) [%]	Compound	DC50 [nM]	Dmax [%]	remaining activity at 25 µM [%]
69	31			O=C1CCC(N2Cc3cc(O[C@@H]4CCCN(C5CC(F)(F)C5)C4)ccc3C2=O)C(=O)N1 (mixture of isomers) [Example 29, 3-(5-(((R)-1-(3,3-difluorocyclobutyl)piperidin-3-yl)oxy)-1-oxoisoindolin-2-yl)piperidine-2,6-dione]	82		
				CCN1C[C@H](C)C[C@@H](Oc2ccc3c(c2)CN(C2CCC(=O)NC2=O)C3=O)C1 (mixture of isomers) [Example 75-1, 3-(5-(((3R,5R)-1-ethyl-5-methylpiperidin-3-yl)oxy)-1-oxoisoindolin-2-yl)piperidine-2,6-dione]	0.9	86.6	13.4
				CCN1C[C@H](O)C[C@@H](Oc2ccc3c(c2)CN(C2CCC(=O)NC2=O)C3=O)C1 (mixture of isomers) [Example 34, rac-3-(5-(((3R,5R)-1-Ethyl-5-hydroxypiperidin-3-yl)oxy)-1-oxoisoindolin-2-yl)piperidine-2,6-dione]	15	80	20
				CCN1CC[C@H](C)[C@@H](Oc2ccc3c(c2)CN(C2CCC(=O)NC2=O)C3=O)C1 (mixture of isomers) [Example 35, rac-3-(5-(((3R,4S)-1-ethyl-4-methylpiperidin-3-yl)oxy)-1-oxoisoindolin-2-yl)piperidine-2,6-dione]	26	31.9	68.1
				CCN1CCC[C@@H](Oc2ccc3c(c2)CN(C2CCC(=O)NC2=O)C3=O)[C@H]1C (mixture of isomers) [Example 44, rac-3-(5-(((2R,3R)-1-ethyl-2-methylpiperidin-3-yl)oxy)-1-oxoisoindolin-2-yl)piperidine-2,6-dione]	60	15.8	84.2
				CCN1C[C@@H](C)C[C@@H](Oc2ccc3c(c2)CN(C2CCC(=O)NC2=O)C3=O)C1 (mixture of isomers) [Example 45, rac-3-(5-(((3R,5S)-1-ethyl-5-methylpiperidin-3-yl)oxy)-1-oxoisoindolin-2-yl)piperidine-2,6-dione]	7.6	43.7	56.3
				CCN1CC[C@@H](C)[C@@H](Oc2ccc3c(c2)CN(C2CCC(=O)NC2=O)C3=O)C1 (mixture of isomers) [Example 46, rac-3-(5-(((3R,4R)-1-ethyl-4-methylpiperidin-3-yl)oxy)-1-oxoisoindolin-2-yl)piperidine-2,6-dione]	> 25000		101
				CCN1C[C@@H](O)C[C@@H](Oc2ccc3c(c2)CN(C2CCC(=O)NC2=O)C3=O)C1 (mixture of isomers) [Example 47, rac-3-(5-(((3R,5S)-1-ethyl-5-hydroxypiperidin-3-yl)oxy)-1-oxoisoindolin-2-yl)piperidine-2,6-dione]	88	22.8	77.2
				CCN1C[C@H](C)C[C@@H](Oc2ccc3c(c2)CN(C2CCC(=O)NC2=O)C3=O)C1 (mixture of isomers) [Example 52, rac-3-(5-(((3R,5R)-1-Ethyl-5-methylpiperidin-3-yl)oxy)-1-oxoisoindolin-2-yl)piperidine-2,6-dione]	5.5	76.2	23.8
				CCN1CCC2(CCC2)C(Oc2ccc3c(c2)CN(C2CCC(=O)NC2=O)C3=O)C1 (racemic) [Example 54, rac-3-(5-((7-ethyl-7-azaspiro[3.5]nonan-5-yl)oxy)-1-oxoisoindolin-2-yl)piperidine-2,6-dione]	> 25000		102
				CCN1CC2CC(Oc3ccc4c(c3)CN(C3CCC(=O)NC3=O)C4=O)C1C2 (racemic) [Example 62, rac-3-(5-((2-ethyl-2-azabicyclo[2.2.1]heptan-6-yl)oxy)-1-oxoisoindolin-2-yl)piperidine-2,6-dione]	83	27.1	72.9
78.2	21.8			CCN1C[C@@H]2C[C@@H]2[C@H](Oc2ccc3c(c2)CN(C2CCC(=O)NC2=O)C3=O)C1 (relative stereo) [Example 53, 3-(5-(((1R*,5S*,6S*)-3-ethyl-3-azabicyclo[4.1.0]heptan-5-yl)oxy)-1-oxoisoindolin-2-yl)piperidine-2,6-dione]	71		
				CCN1CC[C@H](F)[C@@H](Oc2ccc3c(c2)CN(C2CCC(=O)NC2=O)C3=O)C1 (relative stereo) [Example 55, 3-(5-(((3S*,4S*)-1-ethyl-4-fluoropiperidin-3-yl)oxy)-1-oxoisoindolin-2-yl)piperidine-2,6-dione]	26	44.9	55.1
				CCN1CC[C@@H](F)[C@H](Oc2ccc3c(c2)CN(C2CCC(=O)NC2=O)C3=O)C1 (relative stereo) [Example 56, 3-(5-(((3R*,4R*)-1-ethyl-4-fluoropiperidin-3-yl)oxy)-1-oxoisoindolin-2-yl)piperidine-2,6-dione]	950	16.2	83.8
				CCN1CC[C@@H](F)[C@@H](Oc2ccc3c(c2)CN(C2CCC(=O)NC2=O)C3=O)C1 (relative stereo) [Example 57, 3-(5-(((3S*,4R*)-1-ethyl-4-fluoropiperidin-3-yl)oxy)-1-oxoisoindolin-2-yl)piperidine-2,6-dione]	170	16.9	83.1
				CCN1CC[C@H](F)[C@H](Oc2ccc3c(c2)CN(C2CCC(=O)NC2=O)C3=O)C1 (relative stereo) [Example 58, 3-(5-(((3R*,4S*)-1-ethyl-4-fluoropiperidin-3-yl)oxy)-1-oxoisoindolin-2-yl)piperidine-2,6-dione]	4.9	60.7	39.3
		61.38	38.62	CCN1CC(Oc2ccc3c(c2)CN(C2CCC(=O)NC2=O)C3=O)CC2(CC2)C1 (single isomer, unassigned) [Example 18, 3-(5-((5-ethyl-5-azaspiro[2.5]octan-7-yl)oxy)-1-oxoisoindolin-2-yl)piperidine-2,6-dione]	20		
		37.13	62.87	CCN1CC(Oc2ccc3c(c2)CN(C2CCC(=O)NC2=O)C3=O)CC2(CC2)C1 (single isomer, unassigned) [Example 19, 3-(5-((5-ethyl-5-azaspiro[2.5]octan-7-yl)oxy)-1-oxoisoindolin-2-yl)piperidine-2,6-dione]	12		
75.9	24.1			CCN1C[C@H]2C[C@H]2[C@H](Oc2ccc3c(c2)CN(C2CCC(=O)NC2=O)C3=O)C1 (single isomer, unassigned) [Example 20, 3-(5-(((1S*,5S*,6R*)-3-ethyl-3-azabicyclo[4.1.0]heptan-5-yl)oxy)-1-oxoisoindolin-2-yl)piperidine-2,6-dione]	3750		
25.7	74.3			CCN1C[C@@H]2C[C@@H]2[C@@H](Oc2ccc3c(c2)CN(C2CCC(=O)NC2=O)C3=O)C1 (single isomer, unassigned) [Example 21, 3-(5-(((1R*,5R*,6S*)-3-ethyl-3-azabicyclo[4.1.0]heptan-5-yl)oxy)-1-oxoisoindolin-2-yl)piperidine-2,6-dione]	3.5		
75.7	24.4			CCN1C[C@H]2C[C@H]2[C@@H](Oc2ccc3c(c2)CN(C2CCC(=O)NC2=O)C3=O)C1 (single isomer, unassigned) [Example 22, 3-(5-(((1S*,5R*,6R*)-3-ethyl-3-azabicyclo[4.1.0]heptan-5-yl)oxy)-1-oxoisoindolin-2-yl)piperidine-2,6-dione]	83		
				CCN1CCC(C)(C)C(Oc2ccc3c(c2)CN(C2CCC(=O)NC2=O)C3=O)C1 (single isomer, unassigned) [Example 48, 3-(5-((1-ethyl-4,4-dimethylpiperidin-3-yl)oxy)-1-oxoisoindolin-2-yl)piperidine-2,6-dione]	> 25000		102

Reference: patent US12103919B2, “3-(5-oxy)-1-oxoisoindolin-2-yl)piperidine-2,6-dione derivatives and uses thereof” (NOVARTIS AG, priority 2021, dated 2024)
